From patent US8129537B2, “Compounds as PDE IV and TNF inhibitors” (Rhone-Poulenc Rorer Limited, priority 1993, dated 2012)

First: COc1ccc(C(=O)Nc2c(Cl)cncc2Cl)cc1OC1C=CCC1 (racemic) [BI, (±)-N-(3,5-dichloropyrid-4-yl)-3-cyclopent-2-enyloxy-4-methoxybenzamide]
Second: COc1ccc(C(=O)Nc2c(Cl)cncc2Cl)cc1OC1CC=CC1 [BK, N-(3,5-dichloropyrid-4-yl)-3-cyclopent-3-enyloxy-4-methoxybenzamide]
The melting point of the first is lower: 177 to 178 °C for the first, 193 to 195 °C for the second.

First: COc1cc(F)c(C(=O)Nc2c(Cl)cncc2Cl)cc1OC1CCCC1 [A, N-(3,5-dichloropyrid-4-yl)-3-cyclopentyloxy-6-fluoro-4-methoxybenzamide]
Second: COc1cc(F)c(C(=O)Cc2c(Cl)cncc2Cl)cc1OC1CCCC1 [Compound CH, 2-(3,5-dichloropyrid-4-yl)-1-(3-cyclopentyloxy-6-fluoro-4-methoxyphenyl)ethanone]
The melting point of the first is higher: 143 to 144 °C for the first, 115 to 116.5 °C for the second.

Compared with COc1ccc(C(=O)Nc2ccccc2S(C)(=O)=O)cc1OC1CCCC1 [BM, N-(2-methylsulfonylphenyl)-3-cyclopentyloxy-4-methoxybenzamide], COc1ccc(C(=O)C(=O)c2ccncc2)cc1OC1CCCC1 [Compound GK, 1-(3-cyclopentyloxy-4-methoxyphenyl)-2-(pyrid-4-yl)ethane-1,2-dione] is lower in melting point: 119 to 121 °C for the first, 117 to 119 °C for the second.

Compared with COc1ccc(C(=O)Nc2c(Cl)cc(N)cc2Cl)cc1OC1CCCC1 [BS, N-(2,6-dichloro-4-aminophenyl)-3-cyclopentyloxy-4-methoxybenzamide], COc1ccc(C(=O)Nc2c(Cl)cc(CO)cc2Cl)cc1OC1CCCC1 [BW, N-(2,6-dichloro-4-hydroxymethylphenyl)-3-cyclopentyloxy-4-methoxybenzamide] is higher in melting point: 170 to 172 °C for the first, 174 to 176 °C for the second.

Compared with COc1ccc(C(=O)Nc2c(Cl)cc(NC(C)=O)cc2Cl)cc1OC1CCCC1 [BU, N-(4-acetylamino-2,6-dichlorophenyl)-3-cyclopentyloxy-4-methoxybenzamide], COc1ccc(C(=O)Nc2c(Cl)cc(C=O)cc2Cl)cc1OC1CCCC1 [BY, N-(2,6-dichloro-4-formylphenyl)-3-cyclopentyloxy-4-methoxy-benzamide] is lower in melting point: 250 to 252 °C for the first, 96 to 98 °C for the second.

Compared with COc1ncc(C(=O)Nc2c(Cl)cncc2Cl)cc1OC1CCCC1 [Compound CO, 5-cyclopentyloxy-N-(3,5-dichloropyrid-4-yl)-6-methoxynicotinamide], COc1ncc(C(=O)Nc2c(Cl)cccc2Cl)cc1OC1CCCC1 [Compound CP, N-(2,6-dichlorophenyl)-5-cyclopentyloxy-6-methoxynicotinamide] is lower in melting point: 182 to 183 °C for the first, 145 to 146 °C for the second.

First: COc1ncc(C(=O)Nc2c(C)noc2C)cc1OC1CCCC1 [Compound CQ, 5-cyclopentyloxy-N-(3,5-dimethylisoxazol-4-yl)-6-methoxynicotinamide]
Second: COc1ncc(C(=O)Nc2c(F)cncc2F)cc1OC1CCCC1 [Compound CR, 5-cyclopentyloxy-N-(3,5-difluoropyrid-4-yl)-6-methoxynicotinamide]
The melting point of the first is lower: 139 to 140 °C for the first, 210 to 211 °C for the second.

First: COc1ccc(C(=O)Nc2c(Cl)cncc2Cl)nc1OC1CCCC1 [Compound CS, 6-cyclopentyloxy-N-(3,5-dichloropyrid-4-yl)-5-methoxypyridine-2-carboxamide]
Second: COc1cnc(C(=O)Nc2c(Cl)cncc2Cl)cc1OC1CCCC1 [DA, N-(3,5-dichloropyrid-4-yl)-4-cyclopentyloxy-5-methoxypyridine-2-carboxamide]
The melting point of the first is higher: 164 to 166 °C for the first, 129 to 130 °C for the second.

Compared with COc1ncc(C(=O)Cc2c(Cl)cncc2Cl)cc1OC1CCCC1 [Compound CT, 1-(5-cyclopentyloxy-6-methoxypyridin-3-yl)-2-(3,5-dichloropyrid-4-yl)ethanone], COc1cnc(C(=O)Cc2c(Cl)cncc2Cl)cc1OC1CCCC1 [Compound FG, 1-(4-cyclopentyloxy-5-methoxypyridin-2-yl)-2-(3,5-dichloropyridin-4-yl)ethanone] is higher in melting point: 118 to 119 °C for the first, 132 °C for the second.

First: Cc1ncc(C(=S)Nc2c(Cl)cncc2Cl)cc1OC1CCCC1 [Compound CU, 5-cyclopentyloxy-N-(3,5-dichloro-4-pyridyl)-6-methylthionicotinamide]
Second: Cc1ncc(C(=S)Nc2c(Cl)cncc2Cl)cc1OC(C)C [Compound CV, N-(3,5-dichloro-4-pyridyl)-5-isopropyloxy-6-methylthionicotinamide]
The melting point of the first is lower: 144 to 145 °C for the first, 167 to 168 °C for the second.

First: CSc1ncc(C(=O)Cc2c(Cl)cncc2Cl)cc1OC(C)C [Compound CW, 2-(3,5-dichloro-4-pyridyl)-1-(5-isopropyloxy-6-methylthio-3-pyridyl)ethanone]
Second: O=C(Nc1c(Cl)cncc1Cl)c1cc(OC2CCCC2)c(OC(F)F)cn1 [Compound GO, N-(3,5-dichloropyridin-4-yl)-4-cyclopentyloxy-5-difluoromethoxypyridine-2-carboxamide]
The melting point of the first is lower: 124 to 125 °C for the first, 131 to 132 °C for the second.

First: COc1ccc(/C=C/c2c(Cl)cccc2Cl)cc1OC1CCCC1 [Compound GF, trans-1-(3-cyclopentyloxy-4-methoxyphenyl)-2-(2,6-dichlorophenyl)ethene]
Second: COc1c[n+]([O-])c(C(=O)Nc2c(Cl)cncc2Cl)cc1OCC1CC1 [FZ, N-(3,5-dichloropyridin-4-yl)-4-cyclopropylmethoxy-5-methoxy-1-oxidopyridinium-2-carboxamide]
The melting point of the first is lower: 47 to 49 °C for the first, 178 to 180 °C for the second.
